Several values for one entry are separate records, joined by “and”; a condition that tells them apart may be missing. Identical values can stand only once. Entries after “also recorded” stand apart in the source; their conditions may differ. Starred links: 1 amine or outer side, 2 acyl side, 3 side chain; linkers in the order of their positions; H or OH if unused. Positions of bridges follow the written chain, without caps; N, C: chain ends. Non-standard residues stand in square brackets, D forms with d. Residues, ends and D or L forms follow the SMILES beside them. Chains are numbered I, II in the order given. Actinocin(9to1) = Cc1c2oc3c(C)ccc(C(=O)[*:1])c3nc-2c(C(=O)[*:2])c(N)c1=O; NMeV = CN[C@H](C(=O)O)C(C)C; Sar = CNCC(=O)O
Key:
[1] = target: T1, nuclear eIF4E-cyclin D1 mRNA association (Homo sapiens, UniProt P06730); assay: eIF4E immunoprecipitation from nuclear lysates with cap analogue competition, RT-PCR; assay type: biochemical; details: 50 uM analogue
T1 construct: endogenous in cells; host or cells: HEK293T cells, nuclear lysate
T1 sequence (P06730 2-217 limits assumed): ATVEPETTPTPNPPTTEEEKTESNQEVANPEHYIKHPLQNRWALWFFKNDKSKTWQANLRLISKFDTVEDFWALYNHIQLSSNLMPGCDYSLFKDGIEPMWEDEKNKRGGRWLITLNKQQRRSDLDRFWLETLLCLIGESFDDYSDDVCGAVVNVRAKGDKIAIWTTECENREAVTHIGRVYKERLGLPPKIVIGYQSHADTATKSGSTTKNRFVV

4E-SE mRNA export = assay: export of LacZ-4E-SE mRNA (c/n ratio, real time PCR) in eIF4E overexpressing U2OS cells; assay type: cell-based, human; details: for export of 4E-SE containing / cyclin D1 mRNA under inhibition of RNA or protein synthesis: actinomycin D 10 μg/ml, cycloheximide 100 μg/ml, 1 hour
Method: eIF4E and PML stably transfected NIH3T3 and U937 cells were as described (Topisirovic et al., 2002; Topisirovic et al., 2003a). U937 cells were used to analyze endogenous Pim1, which is not expressed in NIH3T3 cells. LacZ/LacZ-4E-SE with or without 2Flag-eIF4E as well as TetON LacZ system were stably transfected in U2OS cells. For NXF1 depletion, U2OS cells were transfected with Lipofectamine 2000 and 10 nM siRNA duplex HSC.RNAI.N006362.1.3 (IDT) according to the manufacturer's instruction. Cells were analyzed 72 h after transfection. Actinomycin D, cycloheximide and leptomycin B were all cell culture grade (Sigma).
Immunopurification was as previously published (Culjkovic et al., 2005). Real Time PCR analyses were performed using Sybr Green PCR Master mix (ABI) in Mx3000P™ thermal cycler (Stratagene), and data analyzed with MxPro software (Stratagene). All conditions were described previously (Culjkovic et al., 2005). All calculations were done using the relative standard curve method described in Applied Biosystems User Bulletin #2.
Fractionation and RNA isolation were as described (Lai and Borden, 2000; Topisirovic et al., 2002). Probes for U6 and tRNAlys for Northern blot analysis were previously described (Topisirovic et al., 2002).

HCV polymerase = HCV polymerase (Hepatitis C virus genotype 1a, UniProt P27958); details: read-out: dissociation constant for HCV polymerase; cited from earlier work
HCV polymerase, sequence (P27958 2421-3011): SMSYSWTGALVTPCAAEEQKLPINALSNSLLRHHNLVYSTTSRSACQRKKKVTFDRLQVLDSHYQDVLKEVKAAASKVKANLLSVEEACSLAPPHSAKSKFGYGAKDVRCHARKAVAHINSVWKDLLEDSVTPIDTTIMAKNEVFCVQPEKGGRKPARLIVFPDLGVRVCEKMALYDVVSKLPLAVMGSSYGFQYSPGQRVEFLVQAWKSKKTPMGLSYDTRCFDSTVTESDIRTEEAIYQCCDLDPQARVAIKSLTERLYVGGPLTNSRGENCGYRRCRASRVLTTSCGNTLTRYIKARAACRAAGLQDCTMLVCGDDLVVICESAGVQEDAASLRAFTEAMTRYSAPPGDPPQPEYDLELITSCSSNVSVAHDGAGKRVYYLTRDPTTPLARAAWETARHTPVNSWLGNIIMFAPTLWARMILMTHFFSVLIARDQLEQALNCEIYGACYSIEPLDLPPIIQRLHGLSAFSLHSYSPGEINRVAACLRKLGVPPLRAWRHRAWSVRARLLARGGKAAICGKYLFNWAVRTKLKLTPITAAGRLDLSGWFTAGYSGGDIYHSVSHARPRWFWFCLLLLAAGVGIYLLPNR

eIF4E wild-type = target: T2, eIF4E wild-type (Mus musculus, UniProt P63073); assay: tryptophan fluorescence quenching titration of nucleoside/nucleotide binding
T2 construct: made in house
T2 sequence (P63073 whole entry): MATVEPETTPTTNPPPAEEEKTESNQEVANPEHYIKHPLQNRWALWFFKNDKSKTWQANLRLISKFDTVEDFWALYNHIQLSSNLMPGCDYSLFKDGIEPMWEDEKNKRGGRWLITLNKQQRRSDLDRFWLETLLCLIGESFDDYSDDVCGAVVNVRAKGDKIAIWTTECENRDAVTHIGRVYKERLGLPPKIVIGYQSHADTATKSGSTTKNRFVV
Method: For fluorescence titrations, mouse eIF4E, which differs from human eIF4E by four nonconserved amino acids, was produced as described. For NMR spectroscopy, mouse eIF4E was expressed as a fusion with the B1 domain of protein G (G4E, kind gift of Gerhard Wagner, Harvard University, Cambridge, Mass.), in BL21 (DE-3) cells by induction with 0.8 mM isopropyl-β-D-thiogalactopyranoside at 18° C. for 20 h in M9 minimal media containing 1 g/l ^15NH4Cl as the sole nitrogen source (Cambridge Isotopes). Cells were lysed at 4° C. by sonication in 0.1 M NaCl/50 mM Tris.HCl (pH 7.5/0.5 mM EDTA/0.5% (vol/vol) Nonidet P-40/10 mM 2-mercaptoethanol/1 mM PMSF. Lysates were cleared by centrifugation at 30,000×g, adsorbed onto m^7G diphosphate-conjugated agarose (Amersham Pharmacia), and extensively washed with 0.1 M NaCl/20 mM Tris.HCl (pH 7.5)/0.5 mM EDTA (Buffer A) at 4° C. Subsequently, beads were washed with 0.1 mM GTP in Buffer A, and G4E was eluted with 5 mM m^7G in Buffer A. Eluate was diluted with 20 mM Na2PO4 (pH 7.5) to reduce NaCl concentration to 50 mM, applied to Sepharose Q anion exchange column (Amersham Pharmacia), and eluted with a linear gradient of NaCl in 20 mM Na2PO4 (pH 7.5) at 4° C. Eluate was dialyzed extensively against 0.1 M NaCl/50 mM Na2PO4 (pH 6.5)/5 mM DTT at 4° C. to produce apo-G4E, as verified by using NMR spectroscopy and fluorescence titrations. Purity and identity of G4E were verified by using SDS/PAGE and electrospray ionization MS. Proteins were concentrated by using Amicon concentrators (Millipore).
Fluorescence measurements were performed by using a home-built fluorimeter, as described. All titrations were performed in 0.3 M NaCl/10 mM Na2PO4 (pH 7.5)/1 μM zinc in 0.3×0.3 cm^2 fluorescence cuvette (Hellma), by using eIF4E concentration of 2 μM. […] Corrected relative fluorescence intensities were normalized, and fluorescence quenching curves were fit to a heuristic single-site-binding expression: I/I0=Kd^n/(x^n+Kd^n) where x is ligand concentration, Kd is the apparent dissociation constant, and n is the Hill coefficient.

eIF4E:m7G binding (G4E) = target: T3, eIF4E:m7G binding (G4E) (UniProt P06654+P63073); assay: m7G-Sepharose affinity chromatography competition; design: species or system mouse
T3 construct: made in house; host or cells: E. coli BL21 (DE-3); construct a gift of Gerhard Wagner
T3 sequence (P06654+P63073 fused): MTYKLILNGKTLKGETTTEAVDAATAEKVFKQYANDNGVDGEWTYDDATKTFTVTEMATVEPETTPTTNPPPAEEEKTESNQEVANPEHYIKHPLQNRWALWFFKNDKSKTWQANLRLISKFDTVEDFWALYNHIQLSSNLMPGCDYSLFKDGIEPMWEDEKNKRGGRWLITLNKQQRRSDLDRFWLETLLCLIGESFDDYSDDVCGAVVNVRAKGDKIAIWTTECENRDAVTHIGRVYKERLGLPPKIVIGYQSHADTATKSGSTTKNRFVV
Method: FIG. 9. […] Washed beads (three times with 75 bed volumes) were incubated with 50 uM of compounds as indicated for 30 min at room temperature. Beads were washed (three times with 75 bed volumes) to remove dissociated eIF4E, and eIF4E remaining bound to beads was resolved using SDS-PAGE, and visualized using Western blotting and chemiluminescence. […] Washed beads (five times with 50 bed volumes of LCB buffer) were incubated with 5 bed volumes of 50 uM of compounds as indicated for 20 min at 4° C. Then 20 uL of the supernatant containing dissociated eIF4E was transferred to a new tube, cleared of trace beads containing bound eIF4E, and resolved using SDS-PAGE, and visualized using Western blotting and chemiluminescence.
m^7G-Sepharose beads (Amersham Pharmacia, 20-μl slurry) were bound with 1.5 ml of 2 μM G4E, purified as described above, in 0.3 M NaCl/0.1 M sodium phosphate (pH 7.5)/10 μM protease-free BSA (USB)/0.1% Nonidet P-40 (Buffer B) for 30 min at room temperature. […] Upon washing released G4E three times with Buffer B, G4E remaining bound to m^7G-Sepharose was boiled in Laemmli buffer (10% glycerol/2% SDS/100 mM DTT/80 mM Tris.HCl/0.06% bromophenol blue, pH 6.8), subjected to SDS/PAGE, and visualized by using Western blotting, as described below.

cap-driven translation = details: cited from earlier work
eIF4E = eIF4E (Homo sapiens, UniProt P06730); details: cited from earlier work
eIF4E, sequence (P06730 whole entry, species assumed): as the sequence (P63073 whole entry) above, with T12P, P16T, A17T, D174E counted along it

[2] = target: cap-binding complex (CBC) (Homo sapiens, UniProt P52298); details: cited from earlier work
cap-binding complex (CBC), sequence (P52298 whole entry): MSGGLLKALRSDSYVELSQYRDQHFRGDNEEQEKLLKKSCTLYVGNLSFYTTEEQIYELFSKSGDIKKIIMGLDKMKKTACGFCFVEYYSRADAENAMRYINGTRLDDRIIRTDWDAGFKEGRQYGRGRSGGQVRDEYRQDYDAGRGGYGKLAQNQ
cap-binding complex (CBC), sequence (Q09161 whole entry partner): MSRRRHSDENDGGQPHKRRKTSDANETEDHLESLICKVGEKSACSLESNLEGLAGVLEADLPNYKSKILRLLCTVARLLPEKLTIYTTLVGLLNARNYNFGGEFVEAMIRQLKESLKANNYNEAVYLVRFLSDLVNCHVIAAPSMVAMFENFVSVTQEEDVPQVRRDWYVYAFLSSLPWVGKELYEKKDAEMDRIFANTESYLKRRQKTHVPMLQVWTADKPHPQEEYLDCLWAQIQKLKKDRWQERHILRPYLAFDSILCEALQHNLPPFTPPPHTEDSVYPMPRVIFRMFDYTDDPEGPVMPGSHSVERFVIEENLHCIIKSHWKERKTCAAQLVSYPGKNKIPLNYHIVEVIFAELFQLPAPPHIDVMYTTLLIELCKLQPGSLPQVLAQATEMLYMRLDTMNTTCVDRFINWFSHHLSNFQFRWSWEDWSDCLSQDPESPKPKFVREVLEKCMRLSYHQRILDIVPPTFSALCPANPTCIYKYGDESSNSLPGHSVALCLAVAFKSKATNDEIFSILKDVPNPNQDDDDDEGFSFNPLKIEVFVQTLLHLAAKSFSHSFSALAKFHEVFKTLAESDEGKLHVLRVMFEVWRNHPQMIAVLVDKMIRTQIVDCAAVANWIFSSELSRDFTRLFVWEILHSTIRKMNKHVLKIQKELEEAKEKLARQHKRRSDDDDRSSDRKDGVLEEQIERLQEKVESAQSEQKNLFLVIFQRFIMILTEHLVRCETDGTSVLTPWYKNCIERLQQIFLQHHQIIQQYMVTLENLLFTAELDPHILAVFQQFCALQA

## Nc1nc2c(ncn2[C@@H]2O[C@H](COP(=O)(O)OP(=O)(O)OP(=O)(O)OC[C@H]3O[C@@H](n4cnc5c(=O)[nH]c(N)nc54)[C@H](O)[C@@H]3O)[C@@H](O)[C@H]2O)c(=O)[nH]1 [GpppG]
[1]
  association of cyclin D1 mRNA with nuclear eIF4E: does not disrupt

## CCC(=C/[C@H](C)C/C=C/C(C)=C/[C@@H](C)C(=O)[C@@H](C)[C@H](O)[C@@H](C)C/C(C)=C/C(=O)O)/C=C/[C@@H]1OC(=O)C=C[C@@H]1C [LMB]
4E-SE mRNA export; 10 ng/ml for 4 h
  export of LacZ-4E-SE mRNA: sensitive to LMB; also recorded: suppressed export

## NC(=O)c1ncn([C@@H]2O[C@H](CO[P@@](=O)(O)O[P@](=O)(O)OP(=O)(O)O)[C@@H](O)[C@H]2O)n1 [RTP, Ribavirin-5′ triphosphate]
HCV polymerase
  Kd: 580000 nM
eIF4E wild-type; fluorescence spectroscopy, wild-type eIF4E, read-out: apparent dissociation constant (Kd) for eIF4E
  Kd: 130 nM and ~100 nM
eIF4E:m7G binding (G4E); 0.1 M KCl, 10 mM HEPES-KOH pH 8.0, presumed 4 C
  competition with m7G binding, protocol of Yan et al.: apparent failure of RTP to compete
eIF4E:m7G binding (G4E); 0.3 M NaCl, 0.1 M sodium phosphate pH 7.5, room temperature, micromolar concentrations
  competition with eIF4E:m7G binding: compete with the binding of eIF4E:m7G
eIF4E:m7G binding (G4E); Western blot of eIF4E remaining bound, read-out: concentration giving 50% reduction of eIF4E binding to m7G-Sepharose
  IC50: ~1000 nM
eIF4E:m7G binding (G4E); read-out: apparent inhibition constant (Ki) of eIF4E:m7G binding
  Ki: ~300 nM

## NC(=O)c1cn([C@@H]2O[C@H](CO)[C@@H](O)[C@H]2O)nn1 [Rib4C, 1-β-D-ribofuranosyl-1,2,3-triazole-4-carboxamide]
eIF4E wild-type; in vitro
  binding to eIF4E: failed to bind eIF4E

## NC(=O)c1ncn(C2OC(COP(=O)(O)OP(=O)(O)OP(=O)(O)OCC3OC(n4cnc5c(=O)[nH]c(N)nc54)C(O)C3O)C(O)C2O)n1 (centres unmarked) [RpppG]
cap-driven translation; Westman et al. 2005
  inhibition of cap-driven translation: does not

## Cc1c2oc3c(C)ccc(C(=O)N[C@@H]4C(=O)N[C@H](C(C)C)C(=O)N5CCC[C@H]5C(=O)N(C)CC(=O)N(C)[C@@H](C(C)C)C(=O)O[C@@H]4C)c3nc-2c(C(=O)N[C@@H]2C(=O)N[C@H](C(C)C)C(=O)N3CCC[C@H]3C(=O)N(C)CC(=O)N(C)[C@@H](C(C)C)C(=O)O[C@@H]2C)c(N)c1=O [actinomycin D] (I: T[dV]P[Sar][NMeV] / II: T[dV]P[Sar][NMeV]; ester I:1-I:C, II:1-II:C; linker I:N-II:N via Actinocin(9to1))
4E-SE mRNA export
  export of 4E-SE containing / cyclin D1 mRNA under inhibition of RNA or protein synthesis: did not affect export

## C[C@@H]1C[C@@H]([C@H](O)CC2CC(=O)NC(=O)C2)C(=O)[C@@H](C)C1 [cycloheximide]
4E-SE mRNA export
  export of 4E-SE containing / cyclin D1 mRNA under inhibition of RNA or protein synthesis: not modulated

## Nc1nc2c(ncn2[C@@H]2O[C@H](CO)[C@@H](O)[C@H]2O)c(=O)[nH]1 [guanosine]
eIF4E
  binding to eIF4E relative to m7G cap, fold weaker: > 5000 fold

## Cn1c[n+]([C@@H]2O[C@H](COP(=O)(O)OP(=O)([O-])O)[C@@H](O)[C@H]2O)c2nc(N)[nH]c(=O)c21 [m7GDP]
cap-driven translation; 1 mM, Yan et al. 2005
  reduction of cap-driven firefly luciferase activity: fourfold

## Cn1c[n+]([C@@H]2O[C@H](COP(=O)(O)OP(=O)([O-])OP(=O)(O)OC[C@H]3O[C@@H](n4cnc5c(=O)[nH]c(N)nc54)[C@H](O)[C@@H]3O)[C@@H](O)[C@H]2O)c2nc(N)[nH]c(=O)c21 [m7GpppG]
[1]
  association of cyclin D1 mRNA with nuclear eIF4E: successfully disrupts
cap-driven translation; Westman et al. 2005
  analog concentration inhibiting cap-driven translation: ca. 0.1 mM
[2]
  Kd: ~10 nM

Reference: patent US10472677B2, “Translational dysfunction based therapeutics” (Translational Therapeutics, Inc., priority 2005, dated 2019)
